{
  "source": "patent US9526713B2",
  "about": "“Use of dencichine in preparation of drug for treating thrombocytopenia” (KUNMING SHENGHUO PHARMACEUTICAL (GROUP) CO., LTD., priority 2013, dated 2016)",
  "key": {"rabbits": {"test_system": "rabbits", "assay": "Influence of Dencichine for injection on the platelet count of rabbits (single-dose injection)", "type": "in vivo, rabbit"}, "[1]": {"test_system": "rats suffering thrombopenia induced by carboplatin", "assay": "Platelet count of rats suffering thrombopenia induced by multiple injections of carboplatin", "type": "in vivo, Wistar rats", "settings": "for increase of platelet count compared with the model group: first injection of carboplatin for 10 days", "experimental": "(§1) 81 rats are prepared and randomly divided into eight groups: • blank control group, • high-dose group A (4 mg/kg, intraperitoneal injection, non modeling), • model group (40 mg/kg, tail vein injection), • interleukin-11 group (260 μg/kg, subcutaneous injection), • high dose group B (4 mg/kg, intraperitoneal injection, modeling), • high dose group (4 mg/kg, intraperitoneal injection), • middle dose group (1 mg/kg, intraperitoneal injection), and • low dose group (0.25 mg/kg, intraperitoneal injection),\n(§2) wherein, the Model group has 11 rats, and the other groups has 10 rats respectively. Before the experiment, the animals are asked to adapt the environment for 2 days, and then blood is taken from their tails for detecting hematological index.\n(§3) After administration for 10 days, blood is taken from tails of rats from blank control group, high-dose group A, and positive drug group respectively for detecting hematological index.\n(§4) Thereafter, all animals, except for those of blank group and high-dose group A, are individually injected with carboplatin (40 mg/kg) for modeling, and followed by successive administration for 15 days. During these 15 days, the rats of high-dose group A and high dose group B are stopped from administration, and taken blood from the tail on 5th day, 10th day and 15th day after the modeling respectively for detecting hematological indices. After 15th day of modeling, carboplatin (40 mg/kg) is injected again for a second modeling, and all the groups take successive administration according to the foregoing method, once a day for successive 10 days. Before each hematological indices detection, animals are weighed respectively. Taking the tails' blood of rats on 5th day after the second injection of carboplatin for detecting hematological indices, and taking the tails' blood of rats on 10th day after the second injection of carboplatin for detecting the indices of hematology, reticulocytes and coagulation; and weighing animals and killing them; and weighing liver, thymus, spleen and adrenal gland taken from the dead rats, and calculating out viscera indices; further taking out marrow for doing pathological examination."}, "[2]": {"assay": "Body weight of rats suffering thrombopenia induced by carboplatin", "type": "in vivo, Wistar rats", "settings": "high dose group A, 4 mg/kg i.p., non modeling", "experimental": "as §1, §2, §3, §4"}},
  "data": [
    {"molecule": "N[C@@H](CNC(=O)C(=O)O)C(=O)O", "note": "[Dencichine, β-N-oxalyl-L-α, β-diaminopropionic acid]", "values": [
      {"measurement": "PLT", "setting": "rabbits; 0.04 mg/kg, 0 min", "result": "523.3 ± 78.5 ×10^9/L"},
      {"measurement": "PLT", "setting": "rabbits; 0.04 mg/kg, 30 min", "result": "451.0 ± 144.5 ×10^9/L"},
      {"measurement": "PLT", "setting": "rabbits; 0.04 mg/kg, 60 min", "result": "504.0 ± 87.8 ×10^9/L"},
      {"measurement": "PLT", "setting": "rabbits; 0.20 mg/kg, 0 min", "result": "574.0 ± 64.3 ×10^9/L"},
      {"measurement": "PLT", "setting": "rabbits; 0.20 mg/kg, 30 min", "result": "502.3 ± 60.8 ×10^9/L"},
      {"measurement": "PLT", "setting": "rabbits; 0.20 mg/kg, 60 min", "result": "518.2 ± 128.5 ×10^9/L"},
      {"measurement": "PLT", "setting": "rabbits; 1.00 mg/kg, 0 min", "result": "491.2 ± 163.1 ×10^9/L"},
      {"measurement": "PLT", "setting": "rabbits; 1.00 mg/kg, 30 min", "result": "526.5 ± 143.8 ×10^9/L"},
      {"measurement": "PLT", "setting": "rabbits; 1.00 mg/kg, 60 min", "result": "541.0 ± 121.6 ×10^9/L"},
      {"measurement": "change on the platelet count of rabbits", "setting": "rabbits; single-dose injection, various doses", "result": "no obvious change"},
      {"measurement": "platelet count", "setting": "[1]; high dose group A, 4 mg/kg i.p., non modeling, 5th day after first injection of carboplatin", "result": "1113.8 ± 356.97 ×10^9/L"},
      {"measurement": "platelet count", "setting": "[1]; high dose group A, 4 mg/kg i.p., non modeling, 5th day after second injection of carboplatin", "result": "1163.3 ± 233.2 ×10^9/L"},
      {"measurement": "platelet count", "setting": "[1]; high dose group A, 4 mg/kg i.p., non modeling, 10th day after first injection of carboplatin", "result": "638.5 ± 207.9 ×10^9/L"},
      {"measurement": "platelet count", "setting": "[1]; high dose group A, 4 mg/kg i.p., non modeling, 10th day after second injection of carboplatin", "result": "873 ± 147.2 ×10^9/L"},
      {"measurement": "platelet count", "setting": "[1]; high dose group A, 4 mg/kg i.p., non modeling, 15th day after first injection of carboplatin", "result": "799.5 ± 349.8 ×10^9/L"},
      {"measurement": "platelet count", "setting": "[1]; high dose group A, 4 mg/kg i.p., non modeling, before experiment", "result": "625.5 ± 109.3 ×10^9/L"},
      {"measurement": "platelet count", "setting": "[1]; high dose group A, 4 mg/kg i.p., non modeling, prophylactic administration for 10 days", "result": "586.9 ± 139.67 ×10^9/L"},
      {"measurement": "platelet count", "setting": "[1]; high dose group B, 4 mg/kg i.p., prophylactic, modeling, 5th day after first injection of carboplatin", "result": "392.7 ± 116.9 ×10^9/L"},
      {"measurement": "platelet count", "setting": "[1]; high dose group B, 4 mg/kg i.p., prophylactic, modeling, 5th day after second injection of carboplatin", "result": "682.1 ± 266.4 ×10^9/L"},
      {"measurement": "platelet count", "setting": "[1]; high dose group B, 4 mg/kg i.p., prophylactic, modeling, 10th day after first injection of carboplatin", "result": "142.6 ± 78.6 ×10^9/L"},
      {"measurement": "platelet count", "setting": "[1]; high dose group B, 4 mg/kg i.p., prophylactic, modeling, 10th day after second injection of carboplatin", "result": "150.5 ± 99.9 ×10^9/L"},
      {"measurement": "platelet count", "setting": "[1]; high dose group B, 4 mg/kg i.p., prophylactic, modeling, 15th day after first injection of carboplatin", "result": "649.8 ± 234.1 ×10^9/L"},
      {"measurement": "platelet count", "setting": "[1]; high dose group B, 4 mg/kg i.p., prophylactic, modeling, before experiment", "result": "619.7 ± 106.81 ×10^9/L"},
      {"measurement": "platelet count", "setting": "[1]; high dose group, 4 mg/kg i.p., 5th day after first injection of carboplatin", "result": "302.2 ± 62.2 ×10^9/L"},
      {"measurement": "platelet count", "setting": "[1]; high dose group, 4 mg/kg i.p., 5th day after second injection of carboplatin", "result": "758.9 ± 231.2 ×10^9/L"},
      {"measurement": "platelet count", "setting": "[1]; high dose group, 4 mg/kg i.p., 10th day after first injection of carboplatin", "result": "186.9 ± 81.0 ×10^9/L"},
      {"measurement": "platelet count", "setting": "[1]; high dose group, 4 mg/kg i.p., 10th day after second injection of carboplatin", "result": "133.8 ± 126.3 ×10^9/L"},
      {"measurement": "platelet count", "setting": "[1]; high dose group, 4 mg/kg i.p., 15th day after first injection of carboplatin", "result": "1038.3 ± 237.1 ×10^9/L"},
      {"measurement": "platelet count", "setting": "[1]; high dose group, 4 mg/kg i.p., before experiment", "result": "625.7 ± 127.04 ×10^9/L"},
      {"measurement": "increase of platelet count compared with the model group", "setting": "[1]; high-dose group (4 mg/kg i.p.)", "result": 27.1, "unit": "%"},
      {"measurement": "platelet count", "setting": "[1]; low dose group, 0.25 mg/kg i.p., 5th day after first injection of carboplatin", "result": "331.4 ± 76.3 ×10^9/L"},
      {"measurement": "platelet count", "setting": "[1]; low dose group, 0.25 mg/kg i.p., 5th day after second injection of carboplatin", "result": "712.8 ± 324.7 ×10^9/L"},
      {"measurement": "platelet count", "setting": "[1]; low dose group, 0.25 mg/kg i.p., 10th day after first injection of carboplatin", "result": "157.8 ± 49.3 ×10^9/L"},
      {"measurement": "platelet count", "setting": "[1]; low dose group, 0.25 mg/kg i.p., 10th day after second injection of carboplatin", "result": "133 ± 83.661 ×10^9/L"},
      {"measurement": "platelet count", "setting": "[1]; low dose group, 0.25 mg/kg i.p., 15th day after first injection of carboplatin", "result": "956.8 ± 266.5 ×10^9/L"},
      {"measurement": "platelet count", "setting": "[1]; low dose group, 0.25 mg/kg i.p., before experiment", "result": "611.5 ± 90.19 ×10^9/L"},
      {"measurement": "platelet count", "setting": "[1]; middle dose group, 1 mg/kg i.p., 5th day after first injection of carboplatin", "result": "359 ± 102.4 ×10^9/L"},
      {"measurement": "platelet count", "setting": "[1]; middle dose group, 1 mg/kg i.p., 5th day after second injection of carboplatin", "result": "620.2 ± 226.1 ×10^9/L"},
      {"measurement": "platelet count", "setting": "[1]; middle dose group, 1 mg/kg i.p., 10th day after first injection of carboplatin", "result": "197.7 ± 78.8 ×10^9/L"},
      {"measurement": "platelet count", "setting": "[1]; middle dose group, 1 mg/kg i.p., 10th day after second injection of carboplatin", "result": "70.386 ± 36.845 ×10^9/L"},
      {"measurement": "platelet count", "setting": "[1]; middle dose group, 1 mg/kg i.p., 15th day after first injection of carboplatin", "result": "1043.4 ± 288.1 ×10^9/L"},
      {"measurement": "platelet count", "setting": "[1]; middle dose group, 1 mg/kg i.p., before experiment", "result": "623 ± 98 ×10^9/L"},
      {"measurement": "increase of platelet count compared with the model group", "setting": "[1]; middle-dose group (1 mg/kg i.p.)", "result": 34.4, "unit": "%"},
      {"measurement": "body weight gain compared with control group", "setting": "[2]", "result": "slower body weight gain"}
    ]}
  ]
}
